Source: patent US8246966B2, “Trypanosome microsome system and uses thereof” (priority 2006, dated 2012)

System: T. brucei microsomes (TbRM)
Test: Post-translational import of VSG—11786 into T. brucei microsomes, proteinase K protection (Example 2)
Format: biochemical, Trypanosoma brucei
Settings: for effect on protein import into TbRM (in words): VSG—11786 substrate
Protocol: FIGS. 2A and 2B show the effect of protein translocation inhibitors on TbRM. FIG. 2A presents the protocol used for import of VSG—117500. In FIG. 2B, SG—117500 mRNA was translated in rabbit reticulocyte lysate with 1.5 equivalents T. brucei cytosol (pretreated with MAL3-101 (0.3 μM), MAL3-51 (1 μM), CJ21,058 (20 μM) or equisetin (50 μM)) for 60 minutes. The reaction mixtures were treated with cycloheximide (50 μg/ml, final concentration) and incubated with TbRM (one equivalent). The mixture was incubated for 60 minutes at 37° C. and digested with proteinase K digestion (30 μg/ml, final concentration) for 60 minutes on ice. Proteins were resolved by SDS-PAGE and detected by phosphorimaging. In lanes 1 and 2, TbRM were pretreated with DMSO. Lane 1 is untreated VSG—117500 with TbRM; lane 2 is VSG—117500 incubated with TbRM and treated with proteinase K. In lanes 3 and 4 TbRM were pretreated with MAL3-101. Lane 3 is VSG—117500 incubated with TbRM; lane 4 is VSG—117500 incubated with TbRM and then treated with proteinase K. In lanes 5 and 6 TbRM pretreated with MAL3-51. Lane 5 is VSG—117500 incubated with TbRM; lane 6 is VSG—117500 incubated with TbRM and then treated with proteinase K. In lanes 7 and 8 TbRM were pretreated with CJ-21,058). Lane 7 is VSG—117500 incubated with TbRM; lane 8 is VSG—117500 incubated with ThRM and then treated with proteinase K. In lanes 9 and 10 TbRM were pretreated with equisetin). Lane 9 is VSG—117500 incubated with TbRM; lane 10 is VSG—117500 incubated with TbRM and then treated with proteinase K.
Protein import into TbRM. Two micrograms (μg) of RNA encoding a truncated substrate (e.g., VSG—11786) was translated in […] of a reaction mixture containing 20 μl rabbit reticulocyte lysate, 60 μM amino acid mixture (-Met, -Cys), and 2.4 μCi [^35S]Promix. The reaction was incubated at 37° C. for 15 minutes. Cycloheximide (50 μg/ml, final concentration) was used to stop further translation, and the mixture was divided into two portions. T. brucei microsomes (ThRM) (1 equivalent) was added to one aliquot, and to the other portion an equal volume of RM buffer was added. The reactions were incubated at 37° C. for 45 minutes for protein import into TbRM to take place post-translationally.
Each reaction mixture was divided into three (each 10 μl) and treated with one of the following on ice for one hour: (I) RM buffer; (ii) 30 μg/ml protease K; (iii) nonidet P-40 (NP-40) (2%, final concentration) followed by protease K (30 μg/ml, final concentration). PMSF (20 mM final concentration) was added to stop protease K digestion. Samples were precipitated with an equal volume of cold (NH4)2SO4 sulphate (saturated) and resolved by sodium dodecyl sulfate-polyacrylamide gel electrophoresis (SDS-PAGE) (4% total acrylamide, 3% cross linker in tricene-HCl system) (Fekkes et al., 1998, Mol Microbiol; 29(5):1179-90). The gels were dried, and radioactive polypeptides detected with a phosphorimager (Molecular Imager FX, (BioRad). Data bands were quantitated with QuantityOne software (BioRad), and graphs were plotted with DeltaGraph (Red Rock software).
A small molecule inhibitor of Hsp70-Hsp40 interaction blocks protein translocation into TbRM. Post-translational ER protein translocation in Saccharomyces cerevisiae and E. coli requires cytosolic chaperones. In the yeast S. cerevisiae, for example, Ssa1p (Hsp70) and co-chaperone Ydj1p (Hsp40) (Becker et al., 1996, Mol Cell Biol; 16(8):4378-86; Ngosuwan et al., 2003, J Biol Chem; 278(9):7034-42; and McClellan et al., 1998, Mol Biol Cell; 9(12): 3533-45) as well as Kar2p/BiP stimulate post-translational protein import (Lyman and Schekman, 1995, J Cell Biol; 131(5):1163-71; Panzner et al., 1995, Cell; 81(4):561-70; and Holkeri et al., 1998, J Cell Sci; 111:749-757). […]

SMILES	inhibition of translocation of VSG—11786 into TbRM (CJ-21,058 20 μM)	effect on protein import into TbRM (in words)	VSG—11786 translocated into TbRM (protection from proteinase K digestion) (MAL3-101 present (0.3 μM in FIG. 2B legend), DMSO control 80%)	inhibition of translocation of VSG—11786 into TbRM (equisetin 25 μM)
C/C=C/C1C(C)=CC2CC(C)CCC2C1(C)/C(O)=C1/C(=O)C(CO)N(C)C1=O (stereo not drawn) [CJ-21,058]	95%	inhibited import	–	–
CCCCCCN(C(=O)CCCCCN1C(=O)NC(c2ccc(-c3ccccc3)cc2)C(C(=O)OCc2ccccc2)=C1C)C(C(=O)NCCCC)c1ccc(OCC(=O)OC)c(C(=O)OC)c1 (stereo not drawn) [MAL3-101]	–	blocked import	13%	–
C/C=C/[C@@H]1C=C[C@@H]2C[C@H](C)CC[C@H]2[C@]1(C)/C(O)=C1/C(=O)[C@H](CO)N(C)C1=O [equisetin]	–	inhibited import	–	95%
